Tested on: Myzus persicae (Sulzer)
Assay: Insecticidal Activity Test 2 against Myzus persicae (Sulzer), foliar spray on potted peppers, approximately 25 ppm
Type: in vivo
Conditions: in Capsicum, 120 h, approximately 25 ppm drug solution in water, counted on day 5 after spraying, read-out: mortality rate rating
Description: Insecticidal Activity Test 2 Against Myzus persicae (Sulzer)
(§1) Peppers were planted in plastic pots with a diameter of 8 cm and a height of 8 cm, Myzus persicae (Sulzer) was reproduced therein, and then the number of Myzus persicae (Sulzer) in each pot was investigated. Some of the compounds prepared in the examples were selected, the compound was dispersed in water to be diluted to approximately 25 ppm, thereby preparing a drug solution.
The drug solution was sprayed onto the foliage of the peppers planted in the pots and air-dried, and the pots were stored in a green house.
(§2) On day 5 after the drug spraying, the number of Myzus persicae (Sulzer) parasitic on each pepper was counted, a mortality rate was calculated from the following formula, and the rating of each compound was investigated.
(§3) [formula] • A rating: 90% to 100% mortality • B rating: 80% or more and less than 90% mortality • C rating: less than 80% mortality

Structure (SMILES)	mortality at 25 µg/mL
CCN(C(=O)c1cnc(C2=NC3(CCOCC3)ON2C)n1C)c1cccnc1 [Ia-1-5-2, N-ethyl-1-methyl-2-(2-methyl-1,8-dioxa-2,4-diazaspiro[4.5]dec-3-en-3-yl)-N-(pyridin-3-yl)-1H-imidazole-5-carboxamide]	90 to 100%

Tested on: Myzus persicae (Sulzer)
Assay: Insecticidal Activity Test 1 against Myzus persicae (Sulzer), foliar spray on potted peppers, approximately 5 ppm
Type: in vivo
Conditions: in Capsicum, 120 h, approximately 5 ppm drug solution in water, counted on day 5 after spraying, read-out: mortality rate rating
Description: Insecticidal Activity Test 1 Against Myzus persicae (Sulzer)
as §1, with “5” for “25”
The drug solution was sprayed onto the foliage of the peppers planted in the pots using a hand sprayer and air-dried, and the pots were stored in a green house.
as §2, §3

Structure (SMILES)	mortality at 5 µg/mL
CCSc1ccccc1-c1nc(-c2ncc(C(=O)N(CC)c3cccnc3)n2C)no1 [Ia-1-1-43, N-ethyl-2-(5-(2-(ethylthio)phenyl)-1,2,4-oxadiazol-3-yl)-1-methyl-N-(pyridin-3-yl)-1H-imidazole-5-carboxamide]	90 to 100%
CCN(C(=O)c1cnc(-c2nnc(C3CC3)o2)n1C)c1cccnc1 [Ia-1-3-2, 2-(5-cyclopropyl-1,3,4-oxadiazol-2-yl)-N-ethyl-1-methyl-N-(pyridin-3-yl)-1H-imidazole-5-carboxamide]	90 to 100%
CCN(C(=O)c1cnc(-c2nnc(C)o2)n1C)c1cccnc1 [Ia-1-3-3, N-ethyl-1-methyl-2-(5-methyl-1,3,4-oxadiazol-2-yl)-N-(pyridin-3-yl)-1H-imidazole-5-carboxamide]	90 to 100%
CCN(C(=O)c1cnc(C2=NOC(C)(C)N2C)n1C)c1cccnc1 [Ia-1-4-2, N-ethyl-1-methyl-N-(pyridin-3-yl)-2-(4,5,5-trimethyl-4,5-dihydro-1,2,4-oxadiazol-3-yl)-1H-imidazole-5-carboxamide]	90 to 100%
CCN(C(=O)c1cnc(C2=NOC3(CCSCC3)N2C)n1C)c1cccnc1 [Ia-1-4-22, N-ethyl-1-methyl-2-(4-methyl-1-oxa-8-thia-2,4-diazaspiro[4.5]dec-2-en-3-yl)-N-(pyridin-3-yl)-1H-imidazole-5-carboxamide]	90 to 100%
CCN(C(=O)c1cnc(C2=NOC(C3CC3)N2)n1C)c1cccnc1 (centres unmarked) [Ia-1-4-41, 2-(5-cyclopropyl-4,5-dihydro-1,2,4-oxadiazol-3-yl)-N-ethyl-1-methyl-N-(pyridin-3-yl)-1H-imidazole-5-carboxamide]	90 to 100%
CCN(C(=O)c1cnc(C2=NOC(C)N2)n1C)c1cccnc1 (centres unmarked) [Ia-1-4-43, N-ethyl-1-methyl-2-(5-methyl-4,5-dihydro-1,2,4-oxadiazol-3-yl)-N-(pyridin-3-yl)-1H-imidazole-5-carboxamide]	90 to 100%
CCC1NC(c2ncc(C(=O)N(CC)c3cccnc3)n2C)=NO1 (centres unmarked) [Ia-1-4-44, N-ethyl-2-(5-ethyl-4,5-dihydro-1,2,4-oxadiazol-3-yl)-1-methyl-N-(pyridin-3-yl)-1H-imidazole-5-carboxamide]	90 to 100%
CCN(C(=O)c1cnc(C2=NC3(CCOCC3)ON2C)n1C)c1cccnc1 [Ia-1-5-2, N-ethyl-1-methyl-2-(2-methyl-1,8-dioxa-2,4-diazaspiro[4.5]dec-3-en-3-yl)-N-(pyridin-3-yl)-1H-imidazole-5-carboxamide]	90 to 100%
CCN(C(=O)c1cnc(C2=NC3(CCC(C(F)(F)F)CC3)ON2C)n1C)c1cccnc1 (centres unmarked) [Ia-1-5-6, N-ethyl-1-methyl-2-(2-methyl-8-(trifluoromethyl)-1-oxa-2,4-diazaspiro[4.5]dec-3-en-3-yl)-N-(pyridin-3-yl)-1H-imidazole-5-carboxamide]	90 to 100%

From patent US20240246945A1, “NOVEL COMPOUND FOR CROP PROTECTANT” (LG CHEM, LTD., priority 2010, published 2024)
